Experimental data taken from US20230063238A1, “IMMUNOMODULATORS” (Bristol-Myers Squibb Company, priority 2020, published 2023).
Starred links: 1 amine or outer side, 2 acyl side, 3 side chain; linkers in the order of their positions; H or OH if unused. Positions of bridges follow the written chain, without caps; N, C: chain ends. Non-standard residues stand in square brackets, D forms with d. Residues, ends and D or L forms follow the SMILES beside them. *: point of attachment. Trp(1-CH2CO2Me) = COC(=O)Cn1cc(C[C@H](N)C(=O)O)c2ccccc21; Trp(1-CH2COOH) = N[C@@H](Cc1cn(CC(=O)O)c2ccccc12)C(=O)O; Hyp = O=C(O)[C@@H]1C[C@@H](O)CN1; X8 = O=C(Nc1cc(F)cc(F)c1)C(=O)*; X5 = O=C(C(=O)*)N1CCc2ccccc2C1; Methoxyoxalyl = COC(=O)C(=O)*; Oxalyl = O=C(C(=O)[*:2])[*:1]; X3 = O=C(NCc1ccc(F)cc1)C(=O)*; NMeNle = CCCC[C@H](NC)C(=O)O; X4 = O=C(Nc1cccc(F)c1)C(=O)*; X6 = CN1CCN(C(=O)C(=O)*)CC1; X1 = O=C(Oc1ccccc1)C(=O)*; NMeA = CN[C@@H](C)C(=O)O; Dab = NCC[C@H](N)C(=O)O; Dap = NC[C@H](N)C(=O)O

Molecular target: T1, PD-1/PD-L1 (Homo sapiens, UniProt Q9NZQ7)
T1 construct: TVMV protease site linker (C); made in house; host or cells: HEK293T cells
Test: PD-1/PD-L1 Homogenous Time-Resolved Fluorescence (HTRF) binding assay
Conditions: PD-L1-His 10 nM final, PD-1-Ig 20 nM final; inhibitors pre-incubated with PD-L1-His for 15 m
Text: The ability of the compounds of formula (I) to bind to PD-L1 was investigated using a PD-1/PD-L1 Homogenous Time-Resolved Fluorescence (HTRF) binding assay.
Homogenous Time-Resolved Fluorescence (HTRF) Binding Assay
The interaction of PD-1 and PD-L1 can be assessed using soluble, purified preparations of the extracellular domains of the two proteins. The PD-1 and PD-L1 protein extracellular domains were expressed as fusion proteins with detection tags, for PD-1, the tag was the Fc portion of Immunoglobulin (PD-1-Ig) and for PD-L1 it was the 6 histidine motif (PD-L1-His). All binding studies were performed in an HTRF assay buffer consisting of dPBS supplemented with 0.1% […] bovine serum albumin and 0.05% (v/v) Tween-20. For the h/PD-L1-His binding assay, inhibitors were pre-incubated with PD-L1-His (10 nM final) for 15 m in 4 μl of assay buffer, followed by addition of PD-1-Ig (20 nM final) in 1 μl of assay buffer and further incubation for 15m. HTRF detection was achieved using europium crypate-labeled anti-Ig (1 nM final) and allophycocyanin (APC) labeled anti-His (20 nM final). Antibodies were diluted in HTRF detection buffer and 5 μl was dispensed on top of the binding reaction. The reaction mixture was allowed to equilibrate for 30 minutes and the resulting signal (665 nm/620 nm ratio) was obtained using an EnVision fluorometer. Additional binding assays were established between the human proteins PD-1-Ig/PD-L2-His (20 & 5 nM, respectively) and CD80-His/PD-L1-Ig (100 & 10 nM, respectively).
Recombinant Proteins: Human PD-1 (25-167) with a C-terminal human Fc domain of immunoglobulin G (Ig) epitope tag [hPD-1 (25-167)-3S-IG] and human PD-L1 (18-239) with a C-terminal His epitope tag [hPD-L1(18-239)-TVMV-His] were expressed in HEK293T cells and purified sequentially by ProteinA affinity chromatography and size exclusion chromatography. Human PD-L2-His and CD80-His was obtained through commercial sources.
Table 1 lists the IC50 values for representative examples of this disclosure measured in the PD-1/PD-L1 Homogenous Time-Resolved Fluorescence (HTRF) binding assay.

T1 sequence (Q9NZQ7 18-239): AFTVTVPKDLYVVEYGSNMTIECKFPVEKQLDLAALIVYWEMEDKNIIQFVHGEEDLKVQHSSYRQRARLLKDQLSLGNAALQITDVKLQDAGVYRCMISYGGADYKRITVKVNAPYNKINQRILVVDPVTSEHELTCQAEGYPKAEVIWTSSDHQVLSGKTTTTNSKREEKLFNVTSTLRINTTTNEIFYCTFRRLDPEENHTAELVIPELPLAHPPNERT

Compound	IC50
CCCC[C@H]1C(=O)N(C)[C@@H](CCCC)C(=O)N[C@@H](CC(C)C)C(=O)N[C@H](C(=O)NCC(N)=O)CSCC(=O)N[C@@H](Cc2ccc(O)cc2)C(=O)N(C)[C@@H](C)C(=O)N[C@@H](CC(N)=O)C(=O)N2CCC[C@H]2C(=O)N[C@@H](CNC(=O)C(=O)Oc2ccccc2)C(=O)N[C@@H](CC(C)C)C(=O)N2C[C@H](O)C[C@H]2C(=O)N[C@@H](Cc2c[nH]c3ccccc23)C(=O)N[C@@H](CCNC(=O)C(=O)Oc2ccccc2)C(=O)N[C@@H](Cc2cn(CC(=O)OC)c3ccccc23)C(=O)N1C [Compound 3003] ({CH2CO}-Y[NMeA]NP[Dap](X1)L[Hyp]W[Dab](X1)[Trp(1-CH2CO2Me)][NMeNle][NMeNle]LCG-NH2; thioether N-14)	0.64 nM
CCCC[C@H]1C(=O)N(C)[C@@H](CCCC)C(=O)N[C@@H](CC(C)C)C(=O)N[C@H](C(=O)NCC(N)=O)CSCC(=O)N[C@@H](Cc2ccc(O)cc2)C(=O)N(C)[C@@H](C)C(=O)N[C@@H](CC(N)=O)C(=O)N2CCC[C@H]2C(=O)N[C@@H](CNC(=O)C(=O)O)C(=O)N[C@@H](CC(C)C)C(=O)N2C[C@H](O)C[C@H]2C(=O)N[C@@H](Cc2c[nH]c3ccccc23)C(=O)N[C@@H](CCNC(=O)C(=O)O)C(=O)N[C@@H](Cc2cn(CC(=O)OC)c3ccccc23)C(=O)N1C [Compound 5001] ({CH2CO}-Y[NMeA]NP[Dap](Oxalyl)L[Hyp]W[Dab](Oxalyl)[Trp(1-CH2CO2Me)][NMeNle][NMeNle]LCG-NH2; thioether N-14)	2.6 nM
CCCC[C@H]1C(=O)N(C)[C@@H](CCCC)C(=O)N[C@@H](CC(C)C)C(=O)N[C@H](C(=O)NCC(N)=O)CSCC(=O)N[C@@H](Cc2ccc(O)cc2)C(=O)N(C)[C@@H](C)C(=O)N[C@@H](CC(N)=O)C(=O)N2CCC[C@H]2C(=O)N[C@@H](CNC(=O)C(=O)N2CCc3ccccc3C2)C(=O)N[C@@H](CC(C)C)C(=O)N2C[C@H](O)C[C@H]2C(=O)N[C@@H](Cc2c[nH]c3ccccc23)C(=O)N[C@@H](CCNC(=O)C(=O)N2CCc3ccccc3C2)C(=O)N[C@@H](Cc2cn(CC(=O)OC)c3ccccc23)C(=O)N1C [Compound 2001] ({CH2CO}-Y[NMeA]NP[Dap](X5)L[Hyp]W[Dab](X5)[Trp(1-CH2CO2Me)][NMeNle][NMeNle]LCG-NH2; thioether N-14)	3.4 nM
CCCC[C@H]1C(=O)N(C)[C@@H](CCCC)C(=O)N[C@@H](CC(C)C)C(=O)N[C@H](C(=O)NCC(N)=O)CSCC(=O)N[C@@H](Cc2ccc(O)cc2)C(=O)N(C)[C@@H](C)C(=O)N[C@@H](CC(N)=O)C(=O)N2CCC[C@H]2C(=O)N[C@@H](CNC(=O)C(=O)Nc2cc(F)cc(F)c2)C(=O)N[C@@H](CC(C)C)C(=O)N2C[C@H](O)C[C@H]2C(=O)N[C@@H](Cc2c[nH]c3ccccc23)C(=O)N[C@@H](CCNC(=O)C(=O)Nc2cc(F)cc(F)c2)C(=O)N[C@@H](Cc2cn(CC(=O)OC)c3ccccc23)C(=O)N1C [Compound 2002] ({CH2CO}-Y[NMeA]NP[Dap](X8)L[Hyp]W[Dab](X8)[Trp(1-CH2CO2Me)][NMeNle][NMeNle]LCG-NH2; thioether N-14)	350 nM
CCCC[C@H]1C(=O)N(C)[C@@H](CCCC)C(=O)N[C@@H](CC(C)C)C(=O)N[C@H](C(=O)NCC(N)=O)CSCC(=O)N[C@@H](Cc2ccc(O)cc2)C(=O)N(C)[C@@H](C)C(=O)N[C@@H](CC(N)=O)C(=O)N2CCC[C@H]2C(=O)N[C@@H](CNC(=O)C(=O)N2CCN(C)CC2)C(=O)N[C@@H](CC(C)C)C(=O)N2C[C@H](O)C[C@H]2C(=O)N[C@@H](Cc2c[nH]c3ccccc23)C(=O)N[C@@H](CCNC(=O)C(=O)N2CCN(C)CC2)C(=O)N[C@@H](Cc2cn(CC(=O)OC)c3ccccc23)C(=O)N1C [Compound 2007] ({CH2CO}-Y[NMeA]NP[Dap](X6)L[Hyp]W[Dab](X6)[Trp(1-CH2CO2Me)][NMeNle][NMeNle]LCG-NH2; thioether N-14)	9.1 nM
CCCC[C@H]1C(=O)N(C)[C@@H](CCCC)C(=O)N[C@@H](CC(C)C)C(=O)N[C@H](C(=O)NCC(N)=O)CSCC(=O)N[C@@H](Cc2ccc(O)cc2)C(=O)N(C)[C@@H](C)C(=O)N[C@@H](CC(N)=O)C(=O)N2CCC[C@H]2C(=O)N[C@@H](CNC(=O)C(=O)Nc2cccc(F)c2)C(=O)N[C@@H](CC(C)C)C(=O)N2C[C@H](O)C[C@H]2C(=O)N[C@@H](Cc2c[nH]c3ccccc23)C(=O)N[C@@H](CCNC(=O)C(=O)Nc2cccc(F)c2)C(=O)N[C@@H](Cc2cn(CC(=O)OC)c3ccccc23)C(=O)N1C [Compound 2003] ({CH2CO}-Y[NMeA]NP[Dap](X4)L[Hyp]W[Dab](X4)[Trp(1-CH2CO2Me)][NMeNle][NMeNle]LCG-NH2; thioether N-14)	370 nM
CCCC[C@H]1C(=O)N(C)[C@@H](CCCC)C(=O)N[C@@H](CC(C)C)C(=O)N[C@H](C(=O)NCC(N)=O)CSCC(=O)N[C@@H](Cc2ccc(O)cc2)C(=O)N(C)[C@@H](C)C(=O)N[C@@H](CC(N)=O)C(=O)N2CCC[C@H]2C(=O)N[C@@H](CNC(=O)C(=O)O)C(=O)N[C@@H](CC(C)C)C(=O)N2C[C@H](O)C[C@H]2C(=O)N[C@@H](Cc2c[nH]c3ccccc23)C(=O)N[C@@H](CCNC(=O)C(=O)O)C(=O)N[C@@H](Cc2cn(CC(=O)O)c3ccccc23)C(=O)N1C [Compound 4001] ({CH2CO}-Y[NMeA]NP[Dap](Oxalyl)L[Hyp]W[Dab](Oxalyl)[Trp(1-CH2COOH)][NMeNle][NMeNle]LCG-NH2; thioether N-14)	3.6 nM
CCCC[C@H]1C(=O)N(C)[C@@H](CCCC)C(=O)N[C@@H](CC(C)C)C(=O)N[C@H](C(=O)NCC(N)=O)CSCC(=O)N[C@@H](Cc2ccc(O)cc2)C(=O)N(C)[C@@H](C)C(=O)N[C@@H](CC(N)=O)C(=O)N2CCC[C@H]2C(=O)N[C@@H](CNC(=O)C(=O)NCc2ccc(F)cc2)C(=O)N[C@@H](CC(C)C)C(=O)N2C[C@H](O)C[C@H]2C(=O)N[C@@H](Cc2c[nH]c3ccccc23)C(=O)N[C@@H](CCNC(=O)C(=O)NCc2ccc(F)cc2)C(=O)N[C@@H](Cc2cn(CC(=O)OC)c3ccccc23)C(=O)N1C [Compound 2009] ({CH2CO}-Y[NMeA]NP[Dap](X3)L[Hyp]W[Dab](X3)[Trp(1-CH2CO2Me)][NMeNle][NMeNle]LCG-NH2; thioether N-14)	1.2 nM
CCCC[C@H]1C(=O)N(C)[C@@H](CCCC)C(=O)N[C@@H](CC(C)C)C(=O)N[C@H](C(=O)NCC(N)=O)CSCC(=O)N[C@@H](Cc2ccc(O)cc2)C(=O)N(C)[C@@H](C)C(=O)N[C@@H](CC(N)=O)C(=O)N2CCC[C@H]2C(=O)N[C@@H](CNC(=O)C(=O)Oc2ccccc2)C(=O)N[C@@H](CC(C)C)C(=O)N2C[C@H](O)C[C@H]2C(=O)N[C@@H](Cc2c[nH]c3ccccc23)C(=O)N[C@@H](CCNC(=O)C(=O)Oc2ccccc2)C(=O)N[C@@H](Cc2cn(CC(=O)O)c3ccccc23)C(=O)N1C [Compound 1001] ({CH2CO}-Y[NMeA]NP[Dap](X1)L[Hyp]W[Dab](X1)[Trp(1-CH2COOH)][NMeNle][NMeNle]LCG-NH2; thioether N-14)	5.4 nM
CCCC[C@H]1C(=O)N(C)[C@@H](CCCC)C(=O)N[C@@H](CC(C)C)C(=O)N[C@H](C(=O)NCC(N)=O)CSCC(=O)N[C@@H](Cc2ccc(O)cc2)C(=O)N(C)[C@@H](C)C(=O)N[C@@H](CC(N)=O)C(=O)N2CCC[C@H]2C(=O)N[C@@H](CNC(=O)C(=O)OC)C(=O)N[C@@H](CC(C)C)C(=O)N2C[C@H](O)C[C@H]2C(=O)N[C@@H](Cc2c[nH]c3ccccc23)C(=O)N[C@@H](CCNC(=O)C(=O)OC)C(=O)N[C@@H](Cc2cn(CC(=O)OC)c3ccccc23)C(=O)N1C [Compound 3001] ({CH2CO}-Y[NMeA]NP[Dap](Methoxyoxalyl)L[Hyp]W[Dab](Methoxyoxalyl)[Trp(1-CH2CO2Me)][NMeNle][NMeNle]LCG-NH2; thioether N-14)	6.3 nM
